Like-named read-outs stand apart in the source and are kept apart here.
Legend:
[1] = target: T1, strychnineinsensitive glycine recognition site (NMDA receptor-ion channel complex) (Rattus norvegicus, UniProt P35439); assay: Glycine binding assay, [3H]glycine, synaptic plasma membranes
T1 construct: Synaptic plasma membranes (SPM) were prepared from rat forebrain; from tissue; host or cells: rat forebrain synaptic plasma membranes
Description: Synaptic plasma membranes (SPM) were prepared from rat forebrain and stored as previously described [J. B. Monahan and J. Michel, J. Neurochem, 48, 1699-1708 (1987)]. Frozen membranes were thawed and diluted 1:20 with 0.04% triton X-100 in 50 mM tris/acetate (pH 7.4). Following incubation at 37° C. for 30 min., the SPM were collected by centrifugation at 95,000 X g for 15 min. The pellet was resuspended in 50 mM tris/acetate (pH 7.4, triton-free) and hand-homogenized five times. The membranes were again centrifuged as above. The pellet was washed two additional times with 50 mM tris/acetate (without homogenization) and centrifuged. The final pellet was resuspended with homogenization in 50 mM tris/acetate.
In the general receptor binding assay procedure, 10 nM [^3 H]glycine was added to the appropriate concentration of the test compounds and the assay initiated by the addition of 0.2-0.4 mg of ice cold SPM. The assay, which was done in 1.5 ml centrifuge tubes, was adjusted to a total volume of 1.0 ml with all additions being made in 50 mM tris/ acetate, pH 7.4 at 4° C. After a 10 minute incubation at 2° C., the samples were centrifuged for 15 min. at 12,000 g (4° C.) in a Beckman Microfuge 12. The supernatant was aspirated and the tube tip containing the pelleted membranes cut off and agitated in 0.5 ml of Beckman BTS-450 tissue solubilizer for a minimum of 6 hours at room temperature. Beckman MP scintillation cocktail (5 ml) containing 7 ml/liter acetic acid was then added and the samples counted on a Beckman LS 5800 liquid scintillation counter with automatic corrections for quenching and counting efficiency. […] The binding of [^3 H]glycine to the SPM was analyzed using Scatchard and Hill transformations and the Ki for other compounds was determined using logit-log analysis. Calculations and regression analysis were performed using templates developed for Lotus 123 as previously described [Pullan et al, Id.].

[2] = target: N-methyl-D-aspartate (NMDA) receptor site; assay: Glutamate (NMDA) binding assay, L-[3H]glutamate, synaptic plasma membranes; conditions: L-[3H]glutamate 12.5 nM, pH 7.4, 0-4° C.; read-out: Ki apparent, NMDA
Description: The purpose of this assay is to determine the binding affinity of a compound of Formula I for the N-methyl-D-aspartate (NMDA) receptor site. This procedure was carried out as follows:
Synaptic plasma membranes (SPM) were prepared as previously described [Monahan, J. B. and Michel, J., "Identification and Characterization of an N-methyl-D-aspartate-specific L-[^3 H]glutamate Recognition Site in Synaptic Plasma Membranes, J. Neurochem., 48, 1699-1708 (1987)]. The SPM were stored at a concentration of 10-15 mg/ml in 0.32 M sucrose, 0.5 mM EDTA, 1 mM MgSO4, 5 mM Tris/SO4, pH 7.4, under liquid nitrogen. The identity and purity of the subcellular fractions were confirmed by both electron microscopy and marker enzymes. Protein concentrations were determined by using a modification of the method of Lowry [Ohnishi, S. T. and Barr, J. K., "A Simplified Method of Quantitating Proteins Using the Biuret and Phenol Reagents", Anal. Biochem., 86, 193-197 (1978)]. The SPM were thawed at room temperature, diluted twenty-fold with 50 mM Tris/acetate, pH 7.4, incubated at 37° C. for 30 minutes, and centrifuged at 100,000 g for 15 minutes. The dilution, incubation, and centrifugation was repeated a total of three times. This general method involved adding 12.5 nM of the L-[^3 H]glutamate radioligand to the appropriate concentration of the test compound and initiating the assay by the addition of ice cold SPM (0.2-0.45 mg). The binding assays were performed in 1.5 ml centrifuge tubes with the total volume adjusted to 1.0 ml. Additions of test compounds were made in 50 mM Tris/acetate, pH 7.4 and incubations were carried out at 0°-4° C. The incubation time for the NMDA binding assay was 10 minutes. To terminate the incubation, the samples were centrifuged for 15 minutes at 12,000 g and 4° C. in a Beckman Microfuge 12. The supernatant was aspirated and the pelleted membranes dissolved in Beckman Ready-Protein scintillation cocktail and the samples counted on a Beckman LS 5800 or 3801 liquid scintillation counter with automatic corrections for quenching and counting efficiency. Nonspecific binding was defined as the residual binding in the presence of 0.5 mM NMDA and was typically 15-25% of the total binding in the NMDA binding assay. Radioligand binding to the SPM was analyzed using Scatchard and Hill transformations and the Ki values of the compounds determined using logit-log transformations. Calculations and regression analysis were performed using templates developed for Lotus 1, 2, 3 as previously described [Pullan, L. M. "Automated Radioligand Receptor Binding Analysis with Templates for Lotus", Computer Appln. Biosci., 3 131 (1987)]. Binding results are reported in Table II for example compounds of the invention.

[3] = 10 nM [3H]glycine, pH 7.4, rat forebrain SPM, read-out: Ki apparent, Gly

Row | Compound | Ki [1, 3] [µM] | Ki [2] [µM] | Ki [1] [µM]
1 | O=C(O)c1cc2c(OCc3ccccc3)cccc2[nH]1 [compound 27, 4-benzyloxyindole-2-carboxylic acid] | > 20 | – | –
2 | O=C(O)c1cc2cc(Br)ccc2[nH]1 [compound 16, 5-bromoindole-2-carboxylic acid] | > 100 | > 100 | –
3 | CN(C)CCNC(=O)Cc1c(C(=O)NCCN(C)C)[nH]c2cc(Cl)ccc12 [compound 54, 2-carboxy-6-chloro-3-indole acetic acid bis-2-dimethyl aminoethylamide] | > 30 | – | –
4 | Cc1ccc2[nH]c(C(=O)O)cc2c1 [compound 17, 5-methylindole-2-carboxylic acid] | > 100 | > 100 | –
5 | O=C(O)Cc1c(C(=O)O)[nH]c2c(Cl)cccc12 [compound 29, 2-carboxy-7-chloroindole-3-acetic acid] | > 30 | – | –
6 | O=C(O)c1cc2c(O)cccc2[nH]1 [compound 28, 4-hydroxyindole-2-carboxylic acid] | > 20 | – | –
7 | Cc1cc2c(CC(=O)O)c(C(=O)O)[nH]c2cc1Cl [compound 21, 2-carboxy-6-chloro-5-methylindole-3-acetic acid] | > 10 | – | –
8 | O=C(O)c1cc2c(C(=O)O)cccc2[nH]1 [compound 26, 4-carboxyindole-2-carboxylic acid] | > 20 | – | –
9 | O=C(O)CCCc1c(C(=O)O)[nH]c2ccccc12 [compound 8, 2-carboxy-3-indolebutanoic acid] | > 100 | > 100 | –
10 | O=C(O)c1cc2cc(Cl)ccc2[nH]1 [compound 14, 5-chloroindole-2-carboxylic acid] | > 100 | > 100 | –
11 | O=C(O)c1[nH]c2ccccc2c1CO [Compound No. 12, 3-hydroxymethylindole-2-carboxylic acid] | > 100 | > 100 | –
12 | Cn1c(C(=O)O)c(CC(=O)O)c2ccccc21 [compound 2, 2-carboxy-1-methyl-3-indoleacetic acid] | > 100 | > 100 | –
13 | O=C1OCCc2c1[nH]c1ccccc21 [compound 23, 4,9-dihydropyrano[3,4-b]indol-1(3H)-one] | > 100 | – | –
14 | CCOC(=O)Cc1c(C=O)[nH]c2cc(Cl)ccc12 [compound 51, ethyl 6-chloro-2-formyl-3-indole acetate] | > 30 | – | –
15 | CCC(C(=O)O)c1c(C(=O)O)[nH]c2ccccc12 (stereo not shown) [compound 10, 2-(2-carboxy-3-indole)butanoic acid] | > 100 | > 100 | –
16 | CCOC(=O)Cc1c(C(=O)OCCCN(C)C)[nH]c2cc(Cl)ccc12 [compound 34, ethyl 2-(3-dimethylaminopropyloxycarbonyl)-6-chloro-3-indole acetate] | > 30 | – | –
17 | O=C(O)c1cc2cc(F)ccc2[nH]1 [compound 15, 5-fluoroindole-2-carboxylic acid] | – | > 100 | –
18 | O=C(O)CCc1c(C(=O)O)[nH]c2ccccc12 [compound 7, 2-carboxy-3-indolepropanoic acid] | > 100 | > 100 | –
19 | CCOC(=O)Cc1c(C(=O)OCC)[nH]c2ccccc12 [compound 19, ethyl 2-carboethoxy-3-indoleacetate] | > 100 | > 100 | –
20 | O=C(O)CCCCc1c(C(=O)O)[nH]c2ccccc12 [compound 9, 2-carboxy-3-indolepentanoic acid] | > 100 | > 100 | –

Row | Compound | Ki [1, 3] [µM] | Ki [2] [µM] | Ki [1] [µM]
21 | O=C(O)c1[nH]c2ccccc2c1CCO [compound 20, 3-(2-hydroxyethyl)indole-2-carboxylic acid] | > 10 | – | –
22 | O=C(O)c1cc2ccccc2[nH]1 [compound 13, indole-2-carboxylic acid] | – | > 100 | > 100
23 | CN(C)CCCNC(=O)Cc1c(C(=O)O)[nH]c2cc(Cl)ccc12 [compound 40, 2-carboxy-6-chloro-3-indoleacetic acid 3-(3-dimethylaminopropyl)amide] | > 30 | – | –
24 | O=C(O)c1[nH]c2cc(Cl)ccc2c1O [Compound No. 11, 6-chloro-3-hydroxyindole-2-carboxylic acid] | > 100 | > 100 | –
25 | COc1ccc2[nH]c(C(=O)O)cc2c1 [compound 18, 5-methoxyindole-2-carboxylic acid] | > 100 | > 100 | –
26 | O=C(O)Cc1c(CO)[nH]c2cc(Cl)ccc12 | > 30 | – | –
27 | CC(=O)Cc1c(C(=O)O)[nH]c2ccccc12 [compound 25, 3-(2-oxopropyl)indole-2-carboxylic acid] | > 30 | – | –
28 | CCCOC(=O)Cc1c(C(=O)O)[nH]c2cc(Cl)ccc12 [compound 42, propyl 2-carboxy-6-chloro-3-indoleacetate] | 7 | – | –
29 | O=C(Cc1c(C(=O)O)[nH]c2cc(Cl)ccc12)NCCO [compound 39, 2-carboxy-6-chloro-3-indoleacetic acid 3-(2-hydroxyethyl)amide] | 11.4 | – | –
30 | O=C(O)Cc1c(C(=O)O)[nH]c2ccc(Br)cc12 [compound 4, 5-bromo-2-carboxy-3-indoleacetic acid] | 26.2 | > 100 | –
31 | O=C(O)Cc1c(C(=O)O)[nH]c2ccc(Cl)cc12 [Compound No. 3, 2-carboxy-5-chloro-3-indoleacetic acid] | 11.7 | > 100 | –
32 | O=C(Cc1c(C(=O)O)[nH]c2cc(Cl)ccc12)NCCc1ccccc1 [compound 45, 2-carboxy-6-chloro-3-indoleacetic acid 3-phenylethylamide] | 0.47 | – | –
33 | O=Cc1c(C(=O)O)[nH]c2ccccc12 [compound 24, 3-formylindole-2-carboxylic acid] | – | > 100 | –
34 | O=C(O)Cc1c(C(=O)O)[nH]c2ccc(F)cc12 [compound 5, 2-carboxy-5-fluoro-3-indoleacetic acid] | 17.5 | > 100 | –
35 | CCOC(=O)c1[nH]c2cc(Cl)ccc2c1CCCl [compound 47, ethyl 6-chloro-3-(2-chloroethyl)-2-indolecarboxylate] | > 10 | – | –
36 | CN(C)C(=O)Cc1c(C(=O)O)[nH]c2cc(Cl)ccc12 [compound 36, 2-carboxy-6-chloro-3-indole acetic acid 3-dimethyl amide] | > 30 | – | –
37 | CCOC(=O)Cc1c(C(=O)OCC)[nH]c2cc(Cl)ccc12 [compound 22, ethyl 2-carboethoxy-6-chloro-3-indoleacetate] | > 100 | – | –
38 | CCOC(=O)c1[nH]c2cc(Cl)ccc2c1CC(N)=O [compound 55, 2-carboethoxy-6-chloro-3-indoleacetamide] | > 30 | – | –
39 | CCOC(=O)Cc1c(CO)[nH]c2cc(Cl)ccc12 [compound 52, ethyl 6-chloro-2-hydroxymethyl-3-indoleacetate] | > 30 | – | –
